pIC50: −log10 of the molar value. Strand notation (5' to 3'): a small letter for the sugar, then the base; units joined by * are phosphorothioate-linked, units joined directly phosphodiester-linked; [ ] holds rarer units or linkages, { } end groups; capitals alone tell only the bases. k = constrained ethyl (cEt); [5mC] = 5-methylcytosine; d = 2'-deoxy (DNA)
Assays:
Yap1 mRNA [1] = test: Antisense inhibition of human Yap1 in A-431 cells by cEt gapmers, single dose (Example 2, RTS4814); assay type: cell-based; conditions: 3-10-3 cEt gapmers targeting SEQ ID NO.: 1, and 2
Outline: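 Free uptake, 2,000 nM, ~48 h, A-431 at 5,000 cells/well. Readout: RT-qPCR (RTS4814), RIBOGREEN-normalized, % UTC. 16-mer 3-10-3 cEt gapmers, full PS backbone, all C as 5-methylcytosine.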

Yap1 mRNA [2] = test: Dose-dependent inhibition of human Yap1 in A-431 cells (Example 8, 10,000 cells per well, RTS4814); assay type: cell-based; conditions: free uptake, approximately 48 hours, RTS4814; for Yap1 mRNA, % UTC: A-431 cells, 10,000 cells per well; for pIC50: A-431 cells, linear regression on log/linear plot
Outline: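 Yap1 mRNA, normalized to RIBOGREEN total RNA and expressed as % untreated control, was read with RTS4814 about 48 h after free-uptake oligonucleotide treatment of A-431 cells at 10,000 cells/well. IC50 derived by linear regression of log/linear data.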

[3] = Yap1 mRNA as percent of untreated control, A-431 cells, Table 31
[4] = Table 33, Yap1 mRNA, percent of untreated control
[5] = Table 32, Yap1 mRNA, percent of untreated control
[6] = Yap1 mRNA as percent of untreated control, A-431 cells, Table 30

Substance	YAP1 (% UTC) (Yap1 mRNA [1]; [3])	Yap1 mRNA, % UTC (Yap1 mRNA [2]; 31.3 nM) [% UTC]	Yap1 mRNA, % UTC (Yap1 mRNA [2]; 125.0 nM) [% UTC]	Yap1 mRNA, % UTC (Yap1 mRNA [2]; 500.0 nM) [% UTC]	Yap1 mRNA, % UTC (Yap1 mRNA [2]; 2000.00 nM) [% UTC]	pIC50 (Yap1 mRNA [2])	YAP1 (% UTC) (Yap1 mRNA [1]; [4])	YAP1 (% UTC) (Yap1 mRNA [1]; [5])	YAP1 (% UTC) (Yap1 mRNA [1]; [6])
1075249 (kA*kT*kT*dA*d[5mC]*dG*dA*dT*dT*dA*dG*dA*dT*k[5mC]*kA*kG; antisense) [compound 1075249]	5	77	37	16	8	7.00	–	–	–
1075155 (kT*k[5mC]*kA*dT*dT*dA*dT*dA*dA*dT*dG*dG*dG*kA*kG*kG; antisense) [compound 1075155]	–	51	15	6	4	> 7.70	5	–	–
1074609 (DNA k[5mC]*kT*kA*dG*dT*dT*dA*d[5mC]*dA*dT*d[5mC]*dA*dT*k[5mC]*kT*k[5mC]) [compound 1074609]	8	65	29	15	11	7.00	–	–	–
1074801 (kA*k[5mC]*kA*dA*dA*dT*dA*dG*dT*dG*d[5mC]*dT*dT*kT*kG*kG; antisense) [compound 1074801]	8	76	41	19	12	7.00	–	–	–
1076465 (kG*k[5mC]*kT*dT*dA*dA*dG*dG*dA*dA*dT*dA*dT*kA*k[5mC]*kA; antisense) [compound 1076465]	5	72	32	14	7	7.00	–	–	–
1075089 (k[5mC]*kA*kT*dT*dT*dA*dT*dA*dG*dT*d[5mC]*dA*dG*kG*kT*kT; antisense) [compound 1075089]	2	45	9	3	3	> 7.70	–	–	–
1076467 (kG*kT*kA*dT*dT*dT*dA*dG*dA*dG*d[5mC]*dT*dT*kA*kA*kG; antisense) [compound 1076467]	–	24	6	3	2	> 7.70	5	–	–
1076466 (kA*kT*kT*dT*dA*dG*dA*dG*d[5mC]*dT*dT*dA*dA*kG*kG*kA; antisense) [compound 1076466]	–	43	18	8	6	> 7.70	–	5	–
1075088 (kA*kT*kT*dT*dA*dT*dA*dG*dT*d[5mC]*dA*dG*dG*kT*kT*k[5mC]; antisense) [compound 1075088]	–	37	9	4	2	> 7.70	–	–	2
1076530 (kA*kG*kT*dA*dT*dA*dA*dA*dG*d[5mC]*dA*dG*dG*kG*k[5mC]*kA; antisense) [compound 1076530]	–	53	26	11	7	> 7.70	–	5	–
1076017 (k[5mC]*kT*kA*dA*dT*dA*dG*dG*dA*dT*dG*dG*dA*kT*kT*k[5mC]; antisense) [compound 1076017]	5	59	25	9	5	7.52	–	–	–
1075699 (kG*kA*kT*dT*dT*dA*dT*dA*d[5mC]*dT*d[5mC]*dA*dG*kG*kT*kT; antisense) [compound 1075699]	–	26	6	3	2	> 7.70	4	–	–
1074672 (antisense k[5mC]*k[5mC]*kA*dA*dG*dT*dA*dG*d[5mC]*dT*dT*dT*dG*kA*kT*k[5mC]) [compound 1074672]	–	34	18	10	7	> 7.70	–	–	6
1076049 (kA*kG*kA*dT*dT*dA*dA*dA*dG*dG*d[5mC]*dT*dG*kG*kA*kA; antisense) [compound 1076049]	4	61	16	13	6	> 7.70	–	–	–
1074579 (DNA k[5mC]*k[5mC]*kA*d[5mC]*dT*dA*dT*dA*dA*dA*dG*d[5mC]*dT*kT*kA*kT) [compound 1074579]	–	54	22	8	5	> 7.70	6	–	–
1075792 (kG*kA*kT*dT*dA*dG*dA*dA*dA*dG*dT*dG*d[5mC]*k[5mC]*kT*kT; antisense) [compound 1075792]	–	79	41	15	10	7.00	–	–	6
1076114 (kA*kT*kT*dA*dG*dT*dA*dA*dG*d[5mC]*dT*dG*dA*kG*kG*kA; antisense) [compound 1076114]	–	34	11	6	5	> 7.70	–	3	–
1074448 (kT*kA*kA*dT*dG*dA*dT*dA*dG*d[5mC]*dA*d[5mC]*dT*kA*kG*kG; antisense) [compound 1074448]	–	54	13	4	3	> 7.70	–	–	3
1074419 (kA*kT*kT*d[5mC]*dT*dT*dT*dA*dG*dA*dG*d[5mC]*d[5mC]*kA*kA*k[5mC]; antisense) [compound 1074419]	–	48	15	5	3	> 7.70	4	–	–
1076369 (antisense kT*kA*kT*dT*d[5mC]*dG*dG*dT*dA*dT*dT*dT*dT*k[5mC]*kT*kA) [compound 1076369]	2	60	20	6	3	> 7.70	–	–	–
1074736 (kT*k[5mC]*kA*dG*dT*dA*d[5mC]*dA*dG*dA*dG*dG*dG*k[5mC]*kA*kT; antisense) [compound 1074736]	–	34	12	7	7	> 7.70	–	–	4
1076115 (k[5mC]*kA*kT*dT*dA*dG*dT*dA*dA*dG*d[5mC]*dT*dG*kA*kG*kG; antisense) [compound 1076115]	–	47	17	9	6	> 7.70	7	–	–
1074450 (kA*k[5mC]*kT*dA*dA*dT*dG*dA*dT*dA*dG*d[5mC]*dA*k[5mC]*kT*kA; antisense) [compound 1074450]	–	54	22	7	5	> 7.70	–	5	–
1076464 (k[5mC]*kA*kT*dA*dT*dA*d[5mC]*dA*dA*dT*dT*d[5mC]*dT*kG*k[5mC]*k[5mC]; antisense) [compound 1076464]	–	36	10	3	2	> 7.70	–	–	2
1074578 (DNA kG*k[5mC]*kT*dT*dA*dT*dT*dT*d[5mC]*dT*dG*dT*d[5mC]*kA*kT*kG) [compound 1074578]	–	66	30	18	11	7.00	–	8	–
1074737 (kT*kT*k[5mC]*dA*dG*dG*dT*d[5mC]*dA*dG*dT*dA*d[5mC]*kA*kG*kA; antisense) [compound 1074737]	7	50	21	8	6	> 7.70	–	–	–
